In patent publication US20240398781A1, “SPIROCYCLIC CYCLIC MODULATORS OF CHOLESTEROL BIOSYNTHESIS AND THEIR USE FOR PROMOTING REMYELINATION” (GENENTECH, INC., priority 2021, published 2024):
pEC50, pKi: −log10 of the molar value. Read-outs that look alike come from different tables or passages of the source.

How the values were obtained:
human EBP = human EBP (Homo sapiens (Human), UniProt Q15125); test: Competition binding assay (SPA, [3H]-Ifenprodil) to determine compound affinity to EBP; settings: read-out: hEBP SPA Ki
Method: Membrane preparation: To examine compound binding affinity to EBP, human EBP was overexpressed in human embryonic kidney 293 cells. Cell pellet was lysed in 10 times weight binding buffer (50 mM Tris, 5 mM MgCl2, 0.1 mM EDTA, lx protease inhibitor cocktail, pH 7.5) on ice by using a dounce homogenizer. The solution was centrifuged at 25,000 g for 50 min at 4° C. The membrane pellet was re-suspended in binding buffer and run through a 25 5/8 gauge needle. After checking the concentration by Bradford assay, the whole cell membrane solution was adjusted to 20 mg/mL and stored at −80° C.
This binding solution was centrifuged at 400 g for 5 minutes to collect the bead/membrane mixture. After re-suspending the pellet in binding buffer at the same calculated volume with 0.01% BSA (Sigma A1933), the bead/membrane mixture was added in 384-well low-binding surface plate (PerkinElmer Cat #6057480) at 25 μl/well. Radioligand at different concentrations with and without the non-radio-labeled same ligand 5 uM (for nonspecific and total signal, respectively) was added to bring final volume to 50 µl/well with DMSO concentration at 0.1%. At equilibrium (3 hours after ligand addition), radiometric signal CPM was counted by using a Microbeta2 microplate counter (Perkinelmer).
Competition binding assay to determine compound affinity: The same conditions of the radioligand Kd study were used for compound single dose percentage inhibition and equilibrium dissociation constant Ki examinations, except 50 nL compound DMSO stock was pre-added in 384-well low-binding surface plate (PerkinElmer Cat #6057480) by Echo 550 (Labcyte) to reach the final concentration for single dose test at 1 uM, and dose response test from 0.06 nM to 5 uM (8 dose, 5 times dilution). A pre-incubated bead/membrane mixture was added in compound plate at 0.3 mg beads and […] membrane per well. […] At equilibrium (3 hours after ligand addition), radiometric signal was counted as described above. The percentage inhibition of compound at each testing concentration was calculated by normalizing each condition's CPM readout to full block (5 uM non-radiolabeled ligand) and non-block (DMSO) control conditions. Compound binding inhibition IC50 was determined by nonlinear regression fitting of percentage inhibition plot against compound concentration. Compound Ki was calculated from the equation Ki=IC50/(1+[L]/Kd), which [L] was radioligand concentration used in assay. All tests had N bigger or equal to 2.

[1] = test system: EBP (zymostenol accumulation in EpiSC-derived OPCs); test: GC/MS-based sterol profiling, zymostenol accumulation in OPCs; assay type: cell-based, mouse; settings: read-out: Zymostenol GCMS EC50
Outline: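 EpiSC-derived OPCs (100,000/well) were treated 24 h in N2B27 without growth factors. Sterols were TMS-derivatized and analysed by GC/MS full-scan EI, quantified against cholesterol-d7. Zymostenol was normalized to the level after 24 h with 100 nM positive control reference.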

[2] = [3H]-Ifenprodil 10 nM, HEK293 membrane overexpressing human EBP, Ki=IC50/(1+[L]/Kd)
[3] = Mus musculus, 24 h, EpiSC-derived OPCs, 24 hr treatment, 8 doses from 0.15 nM to 333 nM
[4] = EpiSC-derived OPCs, 24 hr treatment, 8 doses from 0.15 nM to 333 nM

Sequence of human EBP (Q15125 whole entry): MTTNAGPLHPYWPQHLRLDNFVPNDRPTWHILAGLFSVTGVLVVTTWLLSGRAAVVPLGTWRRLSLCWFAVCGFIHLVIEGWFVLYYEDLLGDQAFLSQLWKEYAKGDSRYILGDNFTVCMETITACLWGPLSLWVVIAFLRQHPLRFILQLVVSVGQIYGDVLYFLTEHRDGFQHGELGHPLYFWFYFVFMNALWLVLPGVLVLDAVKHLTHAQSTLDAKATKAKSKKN

| pKi (human EBP; [2]) | pEC50 [1, 3] | pKi (human EBP) | pEC50 [1, 4] | Structure (SMILES) | pEC50 ([1]; Mus musculus, 24 h) |
| --- | --- | --- | --- | --- | --- |
| 7.47 | 8.70 |  |  | O=S1(=O)CC2(CCN([C@@H]3CCCN(c4ccc(C(F)(F)F)cc4)C3)C2)C1 (single isomer, unassigned) [22A*] |  |
| 7.15 | 7.46 |  |  | O=S1(=O)CC2(CCN([C@H]3CCCN(c4ccc(C(F)(F)F)cc4)C3)C2)C1 (single isomer, unassigned) [22B*] |  |
| 7.48 | 8.40 |  |  | Cn1nc(C(F)(F)F)cc1[C@H]1CC[C@H](N2CCC[C@@]3(CCS(=O)(=O)C3)C2)CC1 (single isomer, unassigned) [26A*] |  |
| 7.68 | 7.42 |  |  | Cn1nc(C(F)(F)F)cc1[C@H]1CC[C@H](N2CCC[C@]3(CCS(=O)(=O)C3)C2)CC1 (single isomer, unassigned) [26B*] |  |
| 7.41 | 7.59 |  |  | Cn1nc(C(F)(F)F)cc1[C@H]1CC[C@H](N2CC[C@@]3(CCS(=O)(=O)C3)C2)CC1 (single isomer, unassigned) [27A*] |  |
| 7.34 | 7.66 |  |  | Cn1nc(C(F)(F)F)cc1[C@H]1CC[C@H](N2CC[C@]3(CCS(=O)(=O)C3)C2)CC1 (single isomer, unassigned) [27B*] |  |
| 7.57 | 7.31 |  |  | Cn1nc(C(F)(F)F)cc1[C@H]1CC[C@@H](N2CC[C@]3(CCS(=O)(=O)C3)C2)CC1 (single isomer, unassigned) [38A*] |  |
| 7.62 | 7.22 |  |  | Cn1nc(C(F)(F)F)cc1[C@H]1CC[C@@H](N2CC[C@@]3(CCS(=O)(=O)C3)C2)CC1 (single isomer, unassigned) [38B*] |  |
| 7.54 |  |  | 7.70 | Cn1nc(C(F)(F)F)cc1[C@H]1CC[C@H](N2CC[C@]3(CCS(=O)(=O)C3)C2)CC1 (single isomer, unassigned) [38C*] |  |
| 7.57 |  |  | 7.40 | Cn1nc(C(F)(F)F)cc1[C@H]1CC[C@H](N2CC[C@@]3(CCS(=O)(=O)C3)C2)CC1 (single isomer, unassigned) [38D*] |  |
| 7.27 | 7.52 |  |  | O=S1(=O)CC2(CCN([C@H]3CC[C@@H](c4ccc(C(F)(F)F)nc4)C3)C2)C1 (single isomer, unassigned) [Compound 11A, (Cis)-6-(3-(6-(Trifluoromethyl)pyridin-3-yl)cyclopentyl)-2-thia-6-azaspiro[3.4]octane 2,2-dioxide] |  |
| 7.38 | 8.14 |  |  | O=S1(=O)CC2(CCN([C@@H]3CC[C@@H](c4ccc(C(F)(F)F)nc4)C3)C2)C1 (single isomer, unassigned) [Compound 11B, (Trans)-6-(3-(6-(Trifluoromethyl)pyridin-3-yl)cyclopentyl)-2-thia-6-azaspiro[3.4]octane 2,2-dioxide] |  |

Second part, the compound before the results:

| Structure (SMILES) | pKi (human EBP; [2]) | pEC50 [1, 3] | pKi (human EBP) | pEC50 [1, 4] | pEC50 ([1]; Mus musculus, 24 h) |
| --- | --- | --- | --- | --- | --- |
| O=S1(=O)CC2(CCN([C@H]3CCN(c4ccc(C(F)(F)F)nc4)C3)C2)C1 (single isomer, unassigned) [9A*] | 7.47 | 8.00 |  |  |  |
| O=S1(=O)CC2(CCN([C@@H]3CCN(c4ccc(C(F)(F)F)nc4)C3)C2)C1 (single isomer, unassigned) [9B*] | 6.77 | 6.40 |  |  |  |
| CC(C)n1nc(C(F)(F)F)cc1[C@H]1CC[C@H](N2CCC3(C2)CS(=O)(=O)C3)C1 (single isomer, unassigned) [10A*] | 7.47 | 8.55 |  |  |  |
| CC(C)n1nc(C(F)(F)F)cc1[C@H]1CC[C@@H](N2CCC3(C2)CS(=O)(=O)C3)C1 (single isomer, unassigned) [10B*] | 7.72 | 8.54 |  |  |  |
| CC(C)n1nc(C(F)(F)F)cc1[C@@H]1CC[C@H](N2CCC3(C2)CS(=O)(=O)C3)C1 (single isomer, unassigned) [10C*] | 7.54 | 8.52 |  |  |  |
| O=S1(=O)CC2(CCN([C@@H]3CC[C@H](c4ccc(C(F)(F)F)nc4)C3)C2)C1 (single isomer, unassigned) [11C*] | 7.46 | 8.39 |  |  |  |
| O=S1(=O)CC2(CCN(C3CC[C@H](c4ccc(C(F)(F)F)nc4)C3)C2)C1 (single isomer, unassigned) [11D*] |  | 7.36 | 7.40 |  |  |
| CC(C)n1nc(-c2cncc(C(F)(F)F)c2)cc1[C@H]1CC[C@@H](N2CCC3(C2)CS(=O)(=O)C3)C1 (single isomer, unassigned) [13A*] | 7.82 | 9.04 |  |  |  |
| CC(C)n1nc(-c2cncc(C(F)(F)F)c2)cc1[C@@H]1CC[C@H](N2CCC3(C2)CS(=O)(=O)C3)C1 (single isomer, unassigned) [13B*] | 7.60 | 9.05 |  |  |  |
| CC(C)n1nc(-c2cncc(C(F)(F)F)c2)cc1[C@@H]1CC[C@@H](N2CCC3(C2)CS(=O)(=O)C3)C1 (single isomer, unassigned) [13C*] | 7.68 | 8.39 |  |  |  |
| CC(C)n1nc(-c2cncc(C(F)(F)F)c2)cc1[C@H]1CC[C@H](N2CCC3(C2)CS(=O)(=O)C3)C1 (single isomer, unassigned) [13D*] | 7.15 | 8.92 |  |  |  |
| CC(C)n1nc(-c2ccc(C(F)(F)F)nc2)nc1[C@H]1CC[C@H](N2CCC3(C2)CS(=O)(=O)C3)C1 (single isomer, unassigned) [17B*] | 7.51 | 8.40 |  |  |  |
| CC(C)n1nc(-c2ccc(C(F)(F)F)nc2)nc1[C@H]1CC[C@@H](N2CCC3(C2)CS(=O)(=O)C3)C1 (single isomer, unassigned) [17D*] | 7.70 | 8.46 |  |  |  |
| CC(C)n1nc(C2CC2)nc1[C@@H]1CC[C@H](N2CCC3(C2)CS(=O)(=O)C3)C1 (single isomer, unassigned) [18A*] | 6.51 |  |  |  | 7.14 |
| CC(C)n1nc(C2CC2)nc1[C@H]1CC[C@H](N2CCC3(C2)CS(=O)(=O)C3)C1 (single isomer, unassigned) [18B*, 6-(3-(3-cyclopropyl-1-isopropyl-1H-1,2,4-triazol-5-yl)cyclopentyl)-2-thia-6-azaspiro[3.4]octane 2,2-dioxide] | 6.68 | 6.70 |  |  |  |
| CC(C)n1nc(C2CC2)nc1[C@@H]1CC[C@@H](N2CCC3(C2)CS(=O)(=O)C3)C1 (single isomer, unassigned) [18C*] | 7.09 | 7.27 |  |  |  |
| CC(C)n1nc(C2CC2)nc1[C@H]1CC[C@@H](N2CCC3(C2)CS(=O)(=O)C3)C1 (single isomer, unassigned) [18D*, 6-(3-(3-cyclopropyl-1-isopropyl-1H-1,2,4-triazol-5-yl)cyclopentyl)-2-thia-6-azaspiro[3.4]octane 2,2-dioxide] | 6.57 | 6.92 |  |  |  |
| CC(C)n1cc(C(F)(F)F)nc1[C@H]1CC[C@H](N2CCC3(C2)CS(=O)(=O)C3)C1 (single isomer, unassigned) [20A*] | 6.55 | 6.62 |  |  |  |
| CC(C)n1cc(C(F)(F)F)nc1[C@@H]1CC[C@@H](N2CCC3(C2)CS(=O)(=O)C3)C1 (single isomer, unassigned) [20B*] | 7.26 |  |  |  | 7.72 |
| CC(C)n1cc(C(F)(F)F)nc1[C@H]1CC[C@@H](N2CCC3(C2)CS(=O)(=O)C3)C1 (single isomer, unassigned) [20C*] | 6.57 | 6.51 |  |  |  |
| CC(C)n1cc(C(F)(F)F)nc1[C@@H]1CC[C@H](N2CCC3(C2)CS(=O)(=O)C3)C1 (single isomer, unassigned) [20D*] | 7.01 | 7.42 |  |  |  |
| O=S1(=O)CC2(CCN([C@H]3CO[C@@H](c4ccc(C(F)(F)F)cc4)C3)C2)C1 (stereo in doubt) [19A*, 6-((3R,5R)-5-(4-(Trifluoromethyl)phenyl)tetrahydrofuran-3-yl)-2-thia-6-azaspiro[3.4]octane 2,2-dioxide] | 7.57 | 7.64 |  |  |  |
